The record followed here is patent publication US4565817A, “Theophyllinyl-alkyl-oxadiazoles, process for the preparation thereof and pharmaceutical compositions containing same” (Chinoin Gyogyszer-es Vegyeszeti Termekek Gyara R.T., priority 1982, dated 1986).

One data set in a line: in vivo. The note with it: mouse.
The test system of a further data set is guinea pigs. Put plainly: Cough relieving against 15% citric acid spray in guinea pigs, one hour after administration. It is filed as in vivo. The note with it: Cavia porcellus, im, 1 h, one hour after 50 mg/kg i.m., % related to the control, read-out: Cough inhibition Q %. As for the experimental part: Q = Cough relieving induced by 15% citric acid spray in guinea pigs one
hour after administration of the substances (50 mg/kg, i.m.) expressed in
% related to the control.

In a further data set the test system is guinea pig. Put plainly: Bronchial spasm induced by histamine, in vivo according to Konzett and Rossler. From the text: (§1) A special group of the compounds of the formula I are those compounds in which R1 stands for alkyl, aralkyl, or aryl. […] Path. […] This activity is significant in relieving cough of the asthmatic type.
Data set [1] deals with trachea stria isolated from rabbit. In words: Bronchial spasm induced by histamine, in vitro on isolated trachea stria.
From the text: as §1

For data set [2], the system named is spasm caused by acetyl choline or serotonine. In words: Spasm caused by acetyl choline or serotonine.
From the text: as §1

Data set [3] in a line: General pharmacological activity (cough relieving, bronchodilatory, antiasthmatic, antiinflammatory). The conditions noted are these: in vivo.
The subject of data set [4] is rat paw carrageenin oedema. In words: Rat paw carrageenin oedema test. It is filed as in vivo. The note with it: i.m. administration, compared with indomethacin. From the text:
Another special group of the compounds according to the invention are the compounds having an alkyl amino group in place of R1. […] This activity is important in cough relieving accompanied by inflammation in the respiration system.

The structures appear in SMILES notation.

As to `Cn1c(=O)c2c(ncn2Cc2noc(CCN3CCCCC3)n2)n(C)c1=O`, the 50% lethal dose (LD50) in “in vivo” (iv) was 240 mg/kg; in “in vivo” (po) it was 1550 mg/kg. In addition, the inhibition in vivo at 50 mg/kg in the data set on guinea pigs was found to be 54.1%.

For `Cn1c(=O)c2c(ncn2Cc2noc(CCN3CCOCC3)n2)n(C)c1=O`, the 50% lethal dose (LD50) was determined as 230 mg/kg in the data set “in vivo” (iv) and 1530 mg/kg in the data set “in vivo” (po). In addition, the inhibition in vivo at 50 mg/kg with guinea pigs came out at 55.4%.

As to `CN1CCN(CCc2nc(Cn3cnc4c3c(=O)n(C)c(=O)n4C)no2)CC1`, the results for the LD50 in the data set “in vivo” (iv) and in “in vivo” (po) were 224 mg/kg and 1670 mg/kg, respectively. The inhibition in vivo at 50 mg/kg with guinea pigs amounted to 54.5%.

For the molecule `Cn1c(=O)c2c(ncn2CCc2noc(CCN3CCOCC3)n2)n(C)c1=O`, the LD50 turned out to be 217 mg/kg in the data set “in vivo” (iv) and 2600 mg/kg in the data set “in vivo” (po). Besides, the inhibition in vivo at 50 mg/kg in the data set on guinea pigs worked out at 48.6%.

On to `Cn1c(=O)c2c(ncn2CCCc2noc(CCN3CCOCC3)n2)n(C)c1=O`, for which the figures for the LD50 in the data set “in vivo” (iv) and in the data set “in vivo” (po) were 220 mg/kg and 1900 mg/kg, respectively. Moreover, the inhibition in vivo at 50 mg/kg in the data set with guinea pigs is 47.7%.

For `CN1CCN(CCc2nc(CC(O)Cn3cnc4c3c(=O)n(C)c(=O)n4C)no2)CC1` (stereo not shown), the results for the LD50 in the data set “in vivo” (iv) and in the data set “in vivo” (po) were 215 mg/kg and 1800 mg/kg, respectively. The inhibition in vivo at 50 mg/kg in the data set with guinea pigs is 48.6%.

For `CC(C)NCCc1nc(CCn2cnc3c2c(=O)n(C)c(=O)n3C)no1` [(CH2)2 (CH2)2 NHi.Pr], the LD50 in the data set “in vivo” (iv) worked out at 200 mg/kg; in “in vivo” (po), 1750 mg/kg. Besides, the inhibition in vivo at 50 mg/kg in the data set on guinea pigs is 54.7%.

Molecule `COc1ccc2c3c1O[C@H]1[C@@H](O)C=C[C@H]4[C@@H](C2)N(C)CC[C@@]341` [Codeine, reference compound] had a median lethal dose (LD50) in “in vivo” (iv) of 54 mg/kg. For the same molecule, in the data set on guinea pigs, the inhibition in vivo at 50 mg/kg came to 50%.

With `Cc1nc(Cn2cnc3c2c(=O)n(C)c(=O)n3C)no1` [Example 1, 7-[(5-methyl-1,2,4-oxadiazol-3-yl)-methyl]-theophylline], the duration of activity result with guinea pig (histamine-induced bronchial spasm, compared with theophylline ethylene diamine) is “considerably longer than in case of theophylline ethylene diamine”. Also, in the data set on guinea pig (in vivo, guinea pig, Konzett and Rossler, histamine), the “bronchial spasm induced by histamine (in vivo)” value is “decreases the bronchial spasm induced by histamine”. Moreover, in data set [1], the “bronchial spasm induced by histamine (in vitro)” value is recorded as “decreases the bronchial spasm induced by histamine”. Further, the inhibition in vivo at 50 mg/kg in the data set with guinea pigs is 54.3%. Besides, in data set [2] (acetyl choline), the “spasm caused by acetyl choline” value is reported as “prevents the spasm caused by acetyl choline or serotonine”. Also, the “spasm caused by serotonine” value in data set [2] (serotonine) is reported as “prevents the spasm caused by acetyl choline or serotonine”.

Regarding `CCN(CC)CCc1nc(Cn2cnc3c2c(=O)n(C)c(=O)n3C)no1` [Example 4, 7-[{5-(2-diethylamino-ethan-1-yl)-1,2,4-oxadiazol-3-yl}-methyl]-theophylline], the 50% lethal dose (LD50) in the data set “in vivo” (iv) was determined as 215 mg/kg; in the data set “in vivo” (po), 1400 mg/kg. For the same molecule, in the data set with guinea pigs, the inhibition in vivo at 50 mg/kg was 56.7%. The “pharmacological activity in words” value in data set [3] was “cough relieving and bronchodilatory activity”. Further, in data set [4], the anti-inflammatory activity result is reported as “strong (comparable with indomethacin) anti-inflammatory activity”.

As for `CCN(CC)CCc1nc(CCCn2cnc3c2c(=O)n(C)c(=O)n3C)no1` [Example 12, 7-[3-5-(2-diethylamino-ethan-1-yl)-1,2,4-oxadiazol-3-yl-propan-1-yl]-theophylline-maleinate], the LD50 amounted to 237 mg/kg in the data set “in vivo” (iv) and 2250 mg/kg in “in vivo” (po). Besides, the inhibition in vivo at 50 mg/kg in the data set with guinea pigs came out at 51.5%.

As to `CCCc1nc(Cn2cnc3c2c(=O)n(C)c(=O)n3C)no1` [Example 18], the median lethal dose (LD50) in “in vivo” (iv) turned out to be 390 mg/kg; in “in vivo” (po), 1400 mg/kg. In the data set on guinea pigs, the inhibition in vivo at 50 mg/kg was 51.1%.

Take `c1ccc(C(Cc2noc(CCN3CCCCC3)n2)c2ccccc2)cc1` [Prenoxdiazine, reference compound]: the LD50 in “in vivo” (iv) turned out to be 34 mg/kg; in “in vivo” (po), 920 mg/kg. Also, the inhibition in vivo at 50 mg/kg in the data set with guinea pigs was 44.5%.
